Measured values: patent EP2062885A1, “Acid addition salts of imatinib and formulations comprising the same” (priority 2007, dated 2009)
Counter-ions that a name gives are not always drawn. Like-named read-outs stand apart in the source and are kept apart here.

Key:
Rat = settings: cited from earlier work
Mouse = settings: cited from earlier work
[1] = Non-hygroscopicity test (stability chambers, water content by Karl Fischer method); type: physicochemical; settings: for Final Moisture Content After 24hrs / Initial Moisture Content: Karl Fischer; for hygroscopic properties: assessment in words, comparable to α and β forms of imatinib mesylate; for Initial Moisture Content: before storage in stability chamber
Description: The water contents were measured by a well known method, namely Karl Fischer method for determining water quantities.

Rabbit = settings: cited from earlier work
Quail = settings: Oral; cited from earlier work

**Q.** Which results are given for `Cc1ccc(S(=O)(=O)O)cc1` [p-Toluene sulfonic acid]?
**A.** LD50 (Rat; Oral, Rat): 2480 mg/kg; LD50 (Mouse; Oral, Mouse): 400 mg/kg

**Q.** Which results are given for `Cc1ccc(NC(=O)c2ccc(CN3CCN(C)CC3)cc2)cc1Nc1nccc(-c2cccnc2)n1` [Imatinib Oxalate, 4-[(4-Methyl-1-piperazinyl)methyl]-N-[4-methyl-3-[[4-(3-pyridinyl) -2-pyrimidinyl]amino]phenyl]-benzamide, oxalate]?
**A.** Final Moisture Content After 24hrs ([1]; 25°C at humidity of 60%): 3.4%; Final Moisture Content After 24hrs ([1]; 40 °C at humidity of 75%): 3.6%; hygroscopic properties [1]: considerably low hygroscopic; Initial Moisture Content [1]: 1.6%

**Q.** Which LD50 (Mouse; mouse, in vivo, ip) does the source give for `O=C(O)c1cc(=O)[nH]c(=O)[nH]1` [Orotic acid] here?
**A.** 841 mg/kg

**Q.** And the LD50 (Mouse; mouse, in vivo, iv)?
**A.** 770 mg/kg

**Q.** What about the LD50 (Mouse; mouse, in vivo, po) of the same compound?
**A.** 2000 mg/kg

**Q.** Which results are given for `Cc1ccc(NC(=O)c2ccc(CN3CCN(C)CC3)cc2)cc1Nc1nccc(-c2cccnc2)n1.O=C(O)c1cc(=O)[nH]c(=O)[nH]1` [Imatinib Orotate, 4-[(4-Methyl-1-piperazinyl)methyl]-N-[4-methyl-3-[[4-(3-pyridinyl)-2-pyrimidinyl]amino]phenyl]-benzamide, orotate]?
**A.** Final Moisture Content After 24hrs ([1]; 25°C at humidity of 60%): 0.7%; Final Moisture Content After 24hrs ([1]; 40 °C at humidity of 75%): 0.7%; hygroscopic properties [1]: considerably low hygroscopic; Initial Moisture Content [1]: 0.4%

**Q.** For `CC1(C)C2CCC1(CS(=O)(=O)O)C(=O)C2` (stereo not drawn) [Camphor sulfonic acid], which LD50 (Mouse; Subcutaneous, Mouse) is on record?
**A.** 2502 mg/kg

**Q.** Which LD50 (Rat; Oral, Rat) does the source give for `N[C@@H](CC(=O)O)C(=O)O` [Aspartic acid] here?
**A.** 5000 mg/kg

**Q.** What about the LD50 (Rabbit; Skin) of the same compound?
**A.** 5000 mg/kg

**Q.** For `CCCCCCCCCCCC(=O)O` [Lauric acid], which LD50 (Rat; Oral, Rat) is on record?
**A.** 12000 mg/kg

**Q.** What about the LD50 (Mouse; mouse, in vivo, iv) of the same compound?
**A.** 131 mg/kg

**Q.** Which results are given for `CCCCCCCC/C=C\CCCCCCCC(=O)O` [Oleic acid]?
**A.** LD50 (Rat; Oral, Rat): 74000 mg/kg; LD50 (Mouse; Intraperitoneal, Mouse): 282 mg/kg; LD50 (Mouse; Intravenous, Mouse): 230 mg/kg

**Q.** For `CCCCCCCCCC(=O)O` [Capric acid], which LD50 (Rat; Oral, Rat) is on record?
**A.** 3730 mg/kg

**Q.** And the LD50 (Rabbit; Oral)?
**A.** 1770 mg/kg

**Q.** Which LD50 (Quail) does the source give for `CS(=O)(=O)O` [Methanesulfonic acid, reference compound] here?
**A.** 1000 mg/kg

**Q.** What about the LD50 (Rat; rat, in vivo, po) of the same compound?
**A.** 200 mg/kg

**Q.** Which results are given for `O=C(O)Cc1ccccc1` [Phenyl acetic acid]?
**A.** LD50 (Rat; Intraperitoneal, Rat): 1600 mg/kg; LD50 (Rat; Oral, Rat): 2250 mg/kg
